Reference: paper PMC12627627 (Nature Communications, 2025)
Several values for one entry are separate records, joined by “and”; a condition that tells them apart may be missing. Equal values may be shown once.

Legend:
RyR1 R2163C = target: T1, RyR1 R2163C (Oryctolagus cuniculus, UniProt P11716, R2163C); test: Time-lapse [Ca2+]ER measurement, HEK293 cells expressing RyR1 R2163C; assay type: cell-based; conditions: for IC50: HEK293 cells stably expressing RyR1 R2163C, ER Ca2+ fluorescence, dose-dependent
T1 construct: expressed in transfected cells
Description: HEK293 cells stably expressing R-CEPIA1er and RyRs (WT RyR1, RyR1-W881A, RyR1-W995A, RyR1-R2163C, and WT RyR2)[26],[27] were used in this study. Briefly, the cells were seeded at a density of 2 × 10⁴ cells/well in a 96-well black, clear-bottom plate (Corning). Doxycycline (2 µg/mL) was added 12 h after seeding, and the medium was replaced 24 h later with HEPES-buffered Krebs solution (5 mM HEPES, pH 7.4; 140 mM NaCl; 5 mM KCl; 2 mM CaCl₂; 1 mM MgCl₂; and 11 mM glucose). Fluorescence measurements were conducted using a FlexStation 3 fluorometer (Molecular Devices) at 37 °C. The R-CEPIA1er was excited at 560 nm, emitted at 610 nm, and captured every 10 seconds over 300 seconds. […] The fluorescence changes (F/F₀) were calculated by dividing the average fluorescence of the last 100 seconds (F) by that of the first 100 seconds (F₀). All measurements were performed in triplicate.

R12 domain of RyR3 = target: T2, R12 domain of RyR3 (Homo sapiens, UniProt Q15413); test: ITC, R12 domain of RyR3; assay type: binding
T2 construct: RyR1 854–1054, RyR2 865–1065, RyR3 853–1053; made in house; host or cells: E. coli BL21 (DE3)
T2 sequence (Q15413 853-1053): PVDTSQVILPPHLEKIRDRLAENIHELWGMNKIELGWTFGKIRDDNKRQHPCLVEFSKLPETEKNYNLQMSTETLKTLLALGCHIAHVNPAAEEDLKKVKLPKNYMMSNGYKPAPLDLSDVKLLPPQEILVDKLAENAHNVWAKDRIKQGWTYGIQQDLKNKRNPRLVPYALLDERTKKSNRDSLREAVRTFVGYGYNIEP
Description: (§1) The plasmids were subsequently transformed into E. coli BL21 (DE3) cells (NEB, USA) and cultured in Luria-Bertani (LB) media at 37 °C. Protein expression was induced with 0.4 mM isopropyl β-D-thiogalactoside (IPTG) when the optical density (OD)600 reached ~0.8, followed by incubation at 18 °C for 12 h. The cells were harvested via centrifugation at 5,000 × g for 15 min at 4 °C and homogenized in Buffer A (10 mM HEPES, pH 7.4, 250 mM KCl) supplemented with 25 µg/mL DNaseI, 25 µg/mL lysozyme, 1 mM phenylmethylsulfonyl fluoride (PMSF), and 20 mM imidazole. The homogenate was centrifuged at 12,000 × g for 45 min, and the supernatant was filtered through a syringe filter (0.22 µm).
(§2) Purified R12 domain protein from the three RyR isoforms, fused with hexahistidine-tagged MBP (HMT-R12) was dialyzed overnight at 4 °C in ITC buffer (200 mM HEPES, pH 7.4, 150 mM KCl). ITC experiments were performed using a PEAQ-ITC instrument (Malvern, UK) at 25 °C with a stirring speed of 750 rpm. […] For the ternary binding experiments, 500 μM or 5 mM AMP-PCP/ADP was preincubated with both the titrants and titrates. […] The data was fit to a one-site fitting model after background buffer subtraction. The RyR1 R12 mutants were generated using a QuikChange mutagenesis kit (Stratagene) according to the manufacturer’s protocol, with primer sequences listed in Supplementary Table 3.

RyR1-W881A R12 = target: T3, RyR1-W881A R12 (Homo sapiens, UniProt P21817, W881A); test: ITC, RyR1 R12 W881A; assay type: binding; conditions: RyR1-W881A R12, no nucleotide
T3 construct: RyR1 854–1054, RyR2 865–1065, RyR3 853–1053; made in house; host or cells: E. coli BL21 (DE3)
T3 sequence (P21817 854-1054 W881A): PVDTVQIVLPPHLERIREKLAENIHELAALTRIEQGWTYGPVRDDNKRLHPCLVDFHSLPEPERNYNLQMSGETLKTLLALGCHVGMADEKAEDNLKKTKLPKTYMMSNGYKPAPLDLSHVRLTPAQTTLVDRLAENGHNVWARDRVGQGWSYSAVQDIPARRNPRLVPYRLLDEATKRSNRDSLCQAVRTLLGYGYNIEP
Description: as §1, §2

R12 domain of RyR2 = target: T4, R12 domain of RyR2 (Homo sapiens, UniProt Q92736); test: ITC, R12 domain of RyR2; assay type: binding; conditions: absence or presence of AMP-PCP or ADP
T4 construct: RyR1 854–1054, RyR2 865–1065, RyR3 853–1053; made in house; host or cells: E. coli BL21 (DE3)
T4 sequence (Q92736 865-1065): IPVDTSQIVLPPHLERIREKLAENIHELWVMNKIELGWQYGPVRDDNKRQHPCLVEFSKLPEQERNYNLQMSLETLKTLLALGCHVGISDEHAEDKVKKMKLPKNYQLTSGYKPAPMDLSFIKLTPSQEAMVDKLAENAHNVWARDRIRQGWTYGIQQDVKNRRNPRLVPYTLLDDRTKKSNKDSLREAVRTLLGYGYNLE
Description: as §1, §2

[1] = RyR3 R12, no nucleotide, ITC 25 °C

SMILES	IC50 (RyR1 R2163C)	Kd (R12 domain of RyR3; RyR3 R12 + 500 µM ADP)	No of Sites (N) (R12 domain of RyR3; RyR3 R12 + 500 µM ADP)	ΔH (R12 domain of RyR3; RyR3 R12 + 500 µM ADP)	−TΔS (R12 domain of RyR3; RyR3 R12 + 500 µM ADP)	Kd (R12 domain of RyR3; RyR3 R12 + 500 µM AMP-PCP)	No of Sites (N) (R12 domain of RyR3; RyR3 R12 + 500 µM AMP-PCP)	ΔH (R12 domain of RyR3; RyR3 R12 + 500 µM AMP-PCP)	−TΔS (R12 domain of RyR3; RyR3 R12 + 500 µM AMP-PCP)	Kd (R12 domain of RyR3; RyR3 R12 + 5 mM ADP)	No of Sites (N) (R12 domain of RyR3; RyR3 R12 + 5 mM ADP)	ΔH (R12 domain of RyR3; RyR3 R12 + 5 mM ADP)	−TΔS (R12 domain of RyR3; RyR3 R12 + 5 mM ADP)	Kd (R12 domain of RyR3; RyR3 R12 + 5 mM AMP-PCP)	No of Sites (N) (R12 domain of RyR3; RyR3 R12 + 5 mM AMP-PCP)	ΔH (R12 domain of RyR3; RyR3 R12 + 5 mM AMP-PCP)	−TΔS (R12 domain of RyR3; RyR3 R12 + 5 mM AMP-PCP)	No of Sites (N) (R12 domain of RyR3; RyR3 R12, no nucleotide)	ΔH (R12 domain of RyR3; RyR3 R12, no nucleotide)	−TΔS (R12 domain of RyR3; RyR3 R12, no nucleotide)	further results
O=C1CN(/N=C/c2ncc(-c3ccc(Br)cc3)o2)C(=O)N1 [AZU, Azumolene]	0.41 µM	0.362 ± 0.086 µM	0.613 ± 0.82	-6.16 ± 0.15 kcal/mol	-2.63 kcal/mol	0.111 ± 0.025 µM	0.760 ± 0.45	-7.90 ± 0.11 kcal/mol	-1.59 kcal/mol	0.052 ± 0.013 µM	0.813 ± 0.48	-7.35 ± 0.11 kcal/mol	-2.59 kcal/mol	0.048 ± 0.021 µM	0.854 ± 0.21	-7.80 ± 0.15 kcal/mol	-2.18 kcal/mol	1.02 ± 0.41	-80 kcal/mol	75.40 kcal/mol	ER luminal [Ca2+] change (F/F0) (RyR1 R2163C; Fig. 1B source data, concentration 0.001 (unit not given), single replicates): 0.9854 and 0.9883 and 0.9973; ER luminal [Ca2+] change (F/F0) (RyR1 R2163C; Fig. 1B source data, concentration 0.01 (unit not given), single replicates): 0.9658 and 0.9819 and 0.982; ER luminal [Ca2+] change (F/F0) (RyR1 R2163C; Fig. 1B source data, concentration 0.05 (unit not given), single replicates): 1.099 and 1.026 and 0.9992; ER luminal [Ca2+] change (F/F0) (RyR1 R2163C; Fig. 1B source data, concentration 0.1 (unit not given), single replicates): 1.103 and 1.117 and 1.012; ER luminal [Ca2+] change (F/F0) (RyR1 R2163C; Fig. 1B source data, concentration 0.5 (unit not given), single replicates): 1.22 and 1.241 and 1.23; ER luminal [Ca2+] change (F/F0) (RyR1 R2163C; Fig. 1B source data, concentration 1 (unit not given), single replicates): 1.3399 and 1.372 and 1.356; ER luminal [Ca2+] change (F/F0) (RyR1 R2163C; Fig. 1B source data, concentration 5 (unit not given), single replicates): 1.6271 and 1.651 and 1.748; ER luminal [Ca2+] change (F/F0) (RyR1 R2163C; Fig. 1B source data, concentration 10 (unit not given), single replicates): 1.557 and 1.7194 and 1.724; ER luminal [Ca2+] change (F/F0) (RyR1 R2163C; Fig. 1B source data, concentration 50 (unit not given), single replicates): 1.618 and 1.707 and 1.756; ER luminal [Ca2+] change (F/F0) (RyR1 R2163C; Fig. 1B source data, concentration 100 (unit not given), single replicates): 1.541 and 1.665 and 1.689; Kd (R12 domain of RyR3; [1]): 394 ± 7.05 µM; Kd (RyR1-W881A R12): 358 ± 138 µM; No of Sites (N) (RyR1-W881A R12): 1.04 ± 0.35; ΔH (RyR1-W881A R12): -35.60 kcal/mol; −TΔS (RyR1-W881A R12): 30.90 kcal/mol; binding to RyR2 R12 domain by ITC (R12 domain of RyR2): neither DAN nor AZU exhibited detectable binding
O=C(C[C@@H](NCCCO)C(=O)O)Nc1ccc2ccccc2c1 [RI-2]	28 µM	28.6 ± 18.7 µM	0.509 ± 0.54	-6.40 ± 1.66 kcal/mol	-0.27 kcal/mol	7.85 ± 2.69 µM	0.604 ± 0.31	-3.25 ± 0.40 kcal/mol	-3.72 kcal/mol	12.9 ± 6.2 µM	0.694 ± 0.42	-11.9 ± 4.87 kcal/mol	5.75 kcal/mol	3.39 ± 0.83 µM	0.508 ± 0.21	-4.58 ± 0.28 kcal/mol	-2.89 kcal/mol	0.970 ± 0.19	-16.2 ± 16.70 kcal/mol	10.6 kcal/mol	[Ca2+]ER change (F/F0) (RyR1 R2163C; 100 µM compound, compared with 2.5% DMSO, Fig. S10 source data, single replicates): 1.393 and 1.514 and 1.475; ER luminal [Ca2+] change (F/F0) (RyR1 R2163C; Fig. 5D source data, RyR1-R2163C, RI-2 0.1 uM, single replicates): 0.9503 and 1.0903 and 0.9717; ER luminal [Ca2+] change (F/F0) (RyR1 R2163C; Fig. 5D source data, RyR1-R2163C, RI-2 0.5 uM, single replicates): 0.9981 and 0.9736 and 1.043; ER luminal [Ca2+] change (F/F0) (RyR1 R2163C; Fig. 5D source data, RyR1-R2163C, RI-2 1 uM, single replicates): 1.073 and 0.9956 and 0.9903; ER luminal [Ca2+] change (F/F0) (RyR1 R2163C; Fig. 5D source data, RyR1-R2163C, RI-2 5 uM, single replicates): 1.035 and 0.9806 and 0.9738; ER luminal [Ca2+] change (F/F0) (RyR1 R2163C; Fig. 5D source data, RyR1-R2163C, RI-2 10 uM, single replicates): 1.082 and 1.203 and 1.117; ER luminal [Ca2+] change (F/F0) (RyR1 R2163C; Fig. 5D source data, RyR1-R2163C, RI-2 25 uM, single replicates): 1.365 and 1.221 and 1.3399; ER luminal [Ca2+] change (F/F0) (RyR1 R2163C; Fig. 5D source data, RyR1-R2163C, RI-2 50 uM, single replicates): 1.514 and 1.709 and 1.462; ER luminal [Ca2+] change (F/F0) (RyR1 R2163C; Fig. 5D source data, RyR1-R2163C, RI-2 75 uM, single replicates): 1.641 and 1.709 and 1.614; ER luminal [Ca2+] change (F/F0) (RyR1 R2163C; Fig. 5D source data, RyR1-R2163C, RI-2 100 uM, single replicates): 1.752 and 1.723 and 1.637; Kd (R12 domain of RyR3; [1]): 178 ± 93.1 µM; Kd (RyR1-W881A R12): 292 ± 22.5 µM; No of Sites (N) (RyR1-W881A R12): 0.94 ± 0.46; ΔH (RyR1-W881A R12): -10.7 ± 3.83 kcal/mol; −TΔS (RyR1-W881A R12): 4.71 kcal/mol; binding to RyR2 R12 domain by ITC (R12 domain of RyR2): no detectable binding
